# Activity calls are given as the source filed them. No cut-off for these calls is given here.
# Key:
# [1] = target: 5'-AMP-activated protein kinase catalytic subunit alpha-1 (Homo sapiens) (UniProt Q13131); assay: AMPKalpha1(h) Millipore kinase panel; details: Compound concentration 1.0 uM
# [2] = target: Serine/threonine-protein kinase TAO3 (Homo sapiens) (UniProt Q9H2K8); assay: TAO3(h) Millipore kinase panel; details: Compound concentration 1.0 uM
# [3] = target: Protein kinase C epsilon type (Homo sapiens) (UniProt Q02156); assay: PKCepsilon(h) Millipore kinase panel; details: Compound concentration 1.0 uM
# [4] = target: Delta-type opioid receptor (Homo sapiens) (UniProt P41143); details: Compound concentration 10.0 uM
# [5] = target: cGMP-dependent protein kinase 2 (Homo sapiens) (UniProt Q13237); assay: PRKG2(h) Millipore kinase panel; details: Compound concentration 1.0 uM
# [6] = target: Glutamate receptor 2 (Homo sapiens) (UniProt P42262); details: Rattus norvegicus; Compound concentration 10.0 uM
# [7] = target: Type-2 angiotensin II receptor (Homo sapiens) (UniProt P50052); details: Compound concentration 10.0 uM
# [8] = target: Monoamine oxidase B (MAO-B) (Homo sapiens, UniProt P27338); assay: Inhibition of Monoamine Oxidase MAO-B at compound concentration of 10.0 uM in the Eurofins-Panlabs enzyme assay (Eurofins_assay_140120); design: substrate with concentration 50 uM Kynuramine, incubation time 60 min, incubation temperature 37 C; details: recombinant human MAO-B expressed in insect Hi5 cells, probe Kynuramine (50 uM), compound concentration 10 uM
# [9] = target: Platelet-derived growth factor receptor beta (Homo sapiens) (UniProt P09619); assay: PDGFRbeta(h) Millipore kinase panel; details: Compound concentration 1.0 uM
# [10] = target: 5-hydroxytryptamine receptor 1B (Homo sapiens, UniProt P28222); details: Compound concentration 10.0 uM
# [11] = target: Serine/threonine-protein kinase pim-1 (Homo sapiens) (UniProt P11309); assay: Pim-1(h) Millipore kinase panel; details: Compound concentration 1.0 uM
# [12] = target: Serine/threonine-protein kinase Sgk3 (Homo sapiens) (UniProt Q96BR1); assay: SGK3(h) Millipore kinase panel; details: Compound concentration 1.0 uM
# [13] = target: Serine/threonine-protein kinase LATS2 (Homo sapiens) (UniProt Q9NRM7); assay: LATS2(h) Millipore kinase panel; details: Compound concentration 1.0 uM
# [14] = target: MAP/microtubule affinity-regulating kinase 3 (Homo sapiens) (UniProt P27448); assay: MARK3(h) Millipore kinase panel; details: Compound concentration 1.0 uM
# [15] = target: Rho-associated protein kinase 1 (Homo sapiens) (UniProt Q13464); assay: ROCK-I(h) Millipore kinase panel; details: Compound concentration 1.0 uM
# [16] = target: Calcium/calmodulin-dependent protein kinase type 1G (Homo sapiens) (UniProt Q96NX5); assay: CaMKIgamma(h) Millipore kinase panel; details: Compound concentration 1.0 uM
# [17] = target: Serine/threonine-protein kinase/endoribonuclease IRE1 (Homo sapiens) (UniProt O75460); assay: IRE1(h) Millipore kinase panel; details: Compound concentration 1.0 uM
# [18] = target: Calcium/calmodulin-dependent protein kinase type 1 (Homo sapiens) (UniProt Q14012); assay: CaMKI(h) Millipore kinase panel; details: Compound concentration 1.0 uM
# [19] = target: T1, Alpha-2B adrenergic receptor (Homo sapiens) (UniProt P18089); details: Compound concentration 10.0 uM
# T1 sequence (whole entry): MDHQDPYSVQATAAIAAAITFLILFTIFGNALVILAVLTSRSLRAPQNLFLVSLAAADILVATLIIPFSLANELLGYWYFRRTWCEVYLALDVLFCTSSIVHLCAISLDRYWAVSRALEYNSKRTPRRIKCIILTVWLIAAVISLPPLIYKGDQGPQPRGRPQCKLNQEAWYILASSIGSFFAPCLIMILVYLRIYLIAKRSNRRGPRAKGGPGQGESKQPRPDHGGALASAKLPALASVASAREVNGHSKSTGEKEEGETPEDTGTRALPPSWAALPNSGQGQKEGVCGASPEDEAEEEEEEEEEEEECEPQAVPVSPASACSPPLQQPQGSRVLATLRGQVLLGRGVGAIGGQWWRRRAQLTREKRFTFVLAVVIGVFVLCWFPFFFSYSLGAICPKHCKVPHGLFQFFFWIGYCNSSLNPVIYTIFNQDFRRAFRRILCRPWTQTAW
# [20] = target: G protein-coupled receptor kinase 5 (Homo sapiens) (UniProt P34947); assay: GRK5(h) Millipore kinase panel; details: Compound concentration 1.0 uM
# [21] = target: Androgen receptor (Homo sapiens) (UniProt P10275); details: Compound concentration 10.0 uM
# [22] = target: Dual specificity tyrosine-phosphorylation-regulated kinase 1B (Homo sapiens) (UniProt Q9Y463); assay: DYRK1B(h) Millipore kinase panel; details: Compound concentration 1.0 uM
# [23] = target: Death-associated protein kinase 3 (Homo sapiens) (UniProt O43293); assay: ZIPK(h) Millipore kinase panel; details: Compound concentration 1.0 uM
# [24] = target: Dual specificity protein kinase CLK3 (Homo sapiens) (UniProt P49761); assay: CLK3(h) Millipore kinase panel; details: Compound concentration 1.0 uM
# [25] = target: Tyrosine-protein kinase ABL1 (Homo sapiens) (UniProt P00519); assay: Abl(h) Millipore kinase panel; details: Compound concentration 1.0 uM
# [26] = target: Serine/threonine-protein kinase D2 (Homo sapiens) (UniProt Q9BZL6); assay: PKD2(h) Millipore kinase panel; details: Compound concentration 1.0 uM
# [27] = target: Phosphorylase b kinase gamma catalytic chain, testis/liver isoform (Homo sapiens) (UniProt P15735); assay: PhKgamma2(h) Millipore kinase panel; details: Compound concentration 1.0 uM
# [28] = target: Cytoplasmic tyrosine-protein kinase BMX (Homo sapiens) (UniProt P51813); assay: Bmx(h) Millipore kinase panel; details: Compound concentration 1.0 uM
# [29] = target: T2, Muscarinic acetylcholine receptor M1 (Homo sapiens) (UniProt P11229); details: Compound concentration 10.0 uM
# T2 sequence (whole entry): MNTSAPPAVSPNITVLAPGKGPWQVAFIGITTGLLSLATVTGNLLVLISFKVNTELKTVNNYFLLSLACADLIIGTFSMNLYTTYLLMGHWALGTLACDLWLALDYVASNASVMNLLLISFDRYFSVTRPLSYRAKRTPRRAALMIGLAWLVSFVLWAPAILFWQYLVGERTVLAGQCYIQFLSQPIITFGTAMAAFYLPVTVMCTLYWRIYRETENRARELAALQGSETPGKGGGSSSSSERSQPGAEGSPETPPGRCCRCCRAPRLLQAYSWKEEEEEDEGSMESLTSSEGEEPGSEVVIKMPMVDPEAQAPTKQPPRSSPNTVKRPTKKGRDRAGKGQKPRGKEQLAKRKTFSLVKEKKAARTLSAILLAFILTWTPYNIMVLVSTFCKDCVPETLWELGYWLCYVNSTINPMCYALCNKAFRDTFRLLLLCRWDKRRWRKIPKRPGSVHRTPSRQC
# [30] = target: Tyrosine-protein kinase Fgr (Homo sapiens) (UniProt P09769); assay: Fgr(h) Millipore kinase panel; details: Compound concentration 1.0 uM
# [31] = target: Kappa-type opioid receptor (Homo sapiens) (UniProt P41145); details: Compound concentration 10.0 uM
# [32] = target: Serine/threonine-protein kinase ULK3 (Homo sapiens) (UniProt Q6PHR2); assay: ULK3(h) Millipore kinase panel; details: Compound concentration 1.0 uM
# [33] = target: 3-phosphoinositide-dependent protein kinase 1 (Homo sapiens) (UniProt O15530); assay: PDK1(h) Millipore kinase panel; details: Compound concentration 1.0 uM
# Chain of 3-phosphoinositide-dependent protein kinase 1 (Homo sapiens) (O15530 whole entry, looked up): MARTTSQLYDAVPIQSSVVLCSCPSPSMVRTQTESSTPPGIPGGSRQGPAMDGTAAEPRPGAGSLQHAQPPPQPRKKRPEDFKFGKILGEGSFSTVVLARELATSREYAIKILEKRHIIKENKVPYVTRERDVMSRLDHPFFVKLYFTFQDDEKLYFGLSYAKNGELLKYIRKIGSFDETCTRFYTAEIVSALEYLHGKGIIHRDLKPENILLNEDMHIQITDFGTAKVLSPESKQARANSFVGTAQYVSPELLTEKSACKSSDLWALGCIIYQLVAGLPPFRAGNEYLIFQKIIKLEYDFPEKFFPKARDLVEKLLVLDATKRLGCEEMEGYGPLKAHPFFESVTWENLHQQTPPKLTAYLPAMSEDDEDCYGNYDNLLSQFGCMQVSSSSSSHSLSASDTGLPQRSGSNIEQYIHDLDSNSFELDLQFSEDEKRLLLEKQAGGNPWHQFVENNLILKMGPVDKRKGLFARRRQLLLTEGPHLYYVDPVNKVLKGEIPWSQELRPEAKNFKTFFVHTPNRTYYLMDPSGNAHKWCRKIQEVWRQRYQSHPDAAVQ
# Chain of Glutamate receptor 2 (Homo sapiens) (P42262 whole entry): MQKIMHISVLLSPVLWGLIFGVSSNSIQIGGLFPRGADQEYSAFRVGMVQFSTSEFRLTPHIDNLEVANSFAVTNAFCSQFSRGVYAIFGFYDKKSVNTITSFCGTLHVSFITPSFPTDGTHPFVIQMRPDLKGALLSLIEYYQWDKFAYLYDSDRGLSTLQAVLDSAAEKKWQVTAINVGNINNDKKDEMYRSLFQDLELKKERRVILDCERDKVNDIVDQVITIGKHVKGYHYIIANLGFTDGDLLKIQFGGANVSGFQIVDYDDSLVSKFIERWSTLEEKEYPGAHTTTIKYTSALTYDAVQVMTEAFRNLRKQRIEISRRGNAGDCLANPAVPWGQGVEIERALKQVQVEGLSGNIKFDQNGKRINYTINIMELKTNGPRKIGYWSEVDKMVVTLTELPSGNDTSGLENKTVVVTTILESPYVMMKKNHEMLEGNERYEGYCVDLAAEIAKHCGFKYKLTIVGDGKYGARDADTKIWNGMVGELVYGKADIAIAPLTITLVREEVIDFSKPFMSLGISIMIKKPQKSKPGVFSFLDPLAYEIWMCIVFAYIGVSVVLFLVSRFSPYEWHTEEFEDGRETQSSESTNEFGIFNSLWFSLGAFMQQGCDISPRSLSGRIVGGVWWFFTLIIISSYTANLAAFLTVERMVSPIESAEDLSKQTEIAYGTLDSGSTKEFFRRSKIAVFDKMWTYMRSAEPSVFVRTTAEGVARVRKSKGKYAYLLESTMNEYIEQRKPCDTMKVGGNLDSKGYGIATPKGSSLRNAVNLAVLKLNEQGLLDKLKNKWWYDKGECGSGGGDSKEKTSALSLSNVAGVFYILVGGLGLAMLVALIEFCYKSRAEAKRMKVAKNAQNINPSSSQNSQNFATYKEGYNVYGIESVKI
# Chain of Serine/threonine-protein kinase ULK3 (Homo sapiens) (Q6PHR2 whole entry): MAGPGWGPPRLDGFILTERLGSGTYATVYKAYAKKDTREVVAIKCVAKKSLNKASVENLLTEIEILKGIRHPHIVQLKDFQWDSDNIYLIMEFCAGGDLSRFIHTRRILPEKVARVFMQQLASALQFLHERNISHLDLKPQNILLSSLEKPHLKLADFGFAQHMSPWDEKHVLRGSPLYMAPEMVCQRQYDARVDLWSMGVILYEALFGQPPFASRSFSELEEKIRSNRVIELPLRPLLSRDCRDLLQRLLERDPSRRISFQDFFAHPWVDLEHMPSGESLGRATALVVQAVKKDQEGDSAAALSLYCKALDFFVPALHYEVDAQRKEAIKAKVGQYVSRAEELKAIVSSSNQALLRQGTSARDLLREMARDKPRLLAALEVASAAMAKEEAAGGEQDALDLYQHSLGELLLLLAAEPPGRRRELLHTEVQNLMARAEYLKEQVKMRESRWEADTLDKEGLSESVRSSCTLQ
# Chain of Death-associated protein kinase 3 (Homo sapiens) (O43293 whole entry, looked up): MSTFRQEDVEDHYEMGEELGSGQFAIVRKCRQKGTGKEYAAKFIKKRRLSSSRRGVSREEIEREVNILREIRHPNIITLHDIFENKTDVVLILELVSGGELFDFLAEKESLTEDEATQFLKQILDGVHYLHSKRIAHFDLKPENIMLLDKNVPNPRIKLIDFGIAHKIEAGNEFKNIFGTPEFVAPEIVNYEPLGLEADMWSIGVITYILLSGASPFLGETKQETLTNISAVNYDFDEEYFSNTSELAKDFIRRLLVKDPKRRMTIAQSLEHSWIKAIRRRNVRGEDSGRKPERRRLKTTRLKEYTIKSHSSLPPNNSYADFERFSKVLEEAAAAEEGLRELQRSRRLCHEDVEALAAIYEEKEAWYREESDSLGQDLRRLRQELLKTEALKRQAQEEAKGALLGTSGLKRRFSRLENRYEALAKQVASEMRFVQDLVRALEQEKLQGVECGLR
# Chain of Serine/threonine-protein kinase D2 (Homo sapiens) (Q9BZL6 whole entry, canonical isoform): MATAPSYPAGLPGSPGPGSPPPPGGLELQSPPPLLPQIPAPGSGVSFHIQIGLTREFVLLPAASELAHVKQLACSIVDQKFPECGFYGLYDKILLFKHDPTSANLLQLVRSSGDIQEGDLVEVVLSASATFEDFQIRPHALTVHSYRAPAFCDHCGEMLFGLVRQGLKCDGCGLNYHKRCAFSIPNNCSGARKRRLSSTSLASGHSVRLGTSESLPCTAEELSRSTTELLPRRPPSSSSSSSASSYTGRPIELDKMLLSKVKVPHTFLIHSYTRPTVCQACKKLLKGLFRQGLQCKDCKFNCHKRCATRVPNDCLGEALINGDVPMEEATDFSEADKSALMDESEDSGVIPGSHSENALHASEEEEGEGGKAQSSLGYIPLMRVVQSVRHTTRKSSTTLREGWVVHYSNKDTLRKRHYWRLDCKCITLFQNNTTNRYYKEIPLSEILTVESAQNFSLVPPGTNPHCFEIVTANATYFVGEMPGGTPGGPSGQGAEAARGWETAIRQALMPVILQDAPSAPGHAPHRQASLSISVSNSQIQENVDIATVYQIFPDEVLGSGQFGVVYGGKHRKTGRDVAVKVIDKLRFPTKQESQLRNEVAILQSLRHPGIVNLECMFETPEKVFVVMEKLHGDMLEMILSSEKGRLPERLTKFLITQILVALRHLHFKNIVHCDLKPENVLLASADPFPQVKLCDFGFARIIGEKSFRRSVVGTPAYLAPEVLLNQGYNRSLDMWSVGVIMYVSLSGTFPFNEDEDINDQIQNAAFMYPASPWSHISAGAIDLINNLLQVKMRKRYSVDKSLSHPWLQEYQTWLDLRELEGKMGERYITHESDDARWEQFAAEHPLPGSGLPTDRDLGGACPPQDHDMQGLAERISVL
# Chain of Calcium/calmodulin-dependent protein kinase type 1 (Homo sapiens) (Q14012 whole entry, looked up): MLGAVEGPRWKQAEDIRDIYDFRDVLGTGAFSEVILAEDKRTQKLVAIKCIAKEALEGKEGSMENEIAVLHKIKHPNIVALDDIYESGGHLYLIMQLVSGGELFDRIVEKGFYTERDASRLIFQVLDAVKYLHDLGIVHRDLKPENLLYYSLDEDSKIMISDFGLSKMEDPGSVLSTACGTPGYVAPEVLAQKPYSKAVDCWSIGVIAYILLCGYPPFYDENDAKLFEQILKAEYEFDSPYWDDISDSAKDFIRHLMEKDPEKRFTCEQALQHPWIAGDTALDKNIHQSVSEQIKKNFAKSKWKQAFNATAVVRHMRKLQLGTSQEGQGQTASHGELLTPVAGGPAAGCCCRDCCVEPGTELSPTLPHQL
# Chain of MAP/microtubule affinity-regulating kinase 3 (Homo sapiens) (P27448 whole entry, looked up): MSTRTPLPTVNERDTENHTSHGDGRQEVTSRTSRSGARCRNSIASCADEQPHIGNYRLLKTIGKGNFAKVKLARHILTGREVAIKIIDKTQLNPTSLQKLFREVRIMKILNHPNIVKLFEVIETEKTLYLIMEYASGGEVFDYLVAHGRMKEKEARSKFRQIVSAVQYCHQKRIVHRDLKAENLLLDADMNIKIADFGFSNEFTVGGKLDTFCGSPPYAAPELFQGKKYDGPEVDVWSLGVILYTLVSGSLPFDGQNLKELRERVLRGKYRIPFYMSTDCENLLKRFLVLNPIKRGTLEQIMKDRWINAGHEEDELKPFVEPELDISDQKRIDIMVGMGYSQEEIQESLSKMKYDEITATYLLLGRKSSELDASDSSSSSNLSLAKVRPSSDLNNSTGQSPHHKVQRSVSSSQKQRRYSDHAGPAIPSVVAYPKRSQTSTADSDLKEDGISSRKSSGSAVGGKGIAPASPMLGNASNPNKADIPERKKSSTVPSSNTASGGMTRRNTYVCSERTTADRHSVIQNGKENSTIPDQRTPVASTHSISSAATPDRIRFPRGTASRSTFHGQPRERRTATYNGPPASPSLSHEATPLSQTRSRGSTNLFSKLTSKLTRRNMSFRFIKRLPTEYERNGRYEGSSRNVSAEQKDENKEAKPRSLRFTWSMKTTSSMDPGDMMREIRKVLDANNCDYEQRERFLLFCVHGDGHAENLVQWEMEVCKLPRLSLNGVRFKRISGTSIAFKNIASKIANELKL
# Chain of Dual specificity tyrosine-phosphorylation-regulated kinase 1B (Homo sapiens) (Q9Y463 whole entry, looked up): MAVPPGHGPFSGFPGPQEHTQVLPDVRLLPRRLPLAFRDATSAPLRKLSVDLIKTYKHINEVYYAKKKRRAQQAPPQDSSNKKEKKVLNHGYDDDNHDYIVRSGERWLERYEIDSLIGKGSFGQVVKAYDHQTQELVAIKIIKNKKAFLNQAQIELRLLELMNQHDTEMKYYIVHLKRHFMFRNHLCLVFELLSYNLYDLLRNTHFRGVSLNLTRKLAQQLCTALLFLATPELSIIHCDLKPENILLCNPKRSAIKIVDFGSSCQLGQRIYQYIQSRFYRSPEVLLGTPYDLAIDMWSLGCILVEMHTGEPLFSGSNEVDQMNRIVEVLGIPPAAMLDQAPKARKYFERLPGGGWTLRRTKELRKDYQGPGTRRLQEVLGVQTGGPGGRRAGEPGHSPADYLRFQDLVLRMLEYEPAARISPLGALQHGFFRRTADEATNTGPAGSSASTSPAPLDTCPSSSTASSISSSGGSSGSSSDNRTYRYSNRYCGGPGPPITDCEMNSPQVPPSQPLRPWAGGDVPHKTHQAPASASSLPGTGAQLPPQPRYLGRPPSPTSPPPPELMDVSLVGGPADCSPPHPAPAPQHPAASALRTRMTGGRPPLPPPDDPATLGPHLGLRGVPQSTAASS
smiles,measurement,setting,value
CC[C@@H](Nc1c(C#N)c(-c2ccc(-c3cccc(C)c3F)cc2)nc2cnccc12)C(=O)O [BAY-091],inhibition,[1],-1.91%
same,inhibition,[2],2.25%
same,inhibition,[3],-4.26%
same,inhibition,[4],12.9%
same,inhibition,[5],12.7%
same,inhibition,[6],-4%
same,inhibition,[7],11%
same,"inhibition at 60 min, 10 µM",[8],81% (active)
same,inhibition,[9],9.33%
same,inhibition,[10],11.3%
same,inhibition,[11],-2.53%
same,inhibition,[12],6.09%
same,inhibition,[13],1.83%
same,inhibition,[14],-4.67%
same,inhibition,[15],-2.77%
same,inhibition,[16],14.4%
same,inhibition,[17],2.72%
same,inhibition,[18],7.33%
same,inhibition,[19],-1.14%
same,inhibition,[20],-3.49%
same,inhibition,[21],14%
same,inhibition,[22],12.1%
same,inhibition,[23],0.91%
same,inhibition,[24],2.84%
same,inhibition,[25],12.1%
same,inhibition,[26],4.37%
same,inhibition,[27],-0.34%
same,inhibition,[28],3.69%
same,inhibition,[29],13%
same,inhibition,[30],5.05%
same,inhibition,[31],-2%
same,inhibition,[32],0.33%
same,inhibition,[33],-8.72%

# Source: ChEMBL document CHEMBL4800729 (2021)
